Assay results reported in US20240050428A1 (Cullgen (Shanghai), Inc., priority 2020, published 2024).
Like-named read-outs stand apart in the source and are kept apart here.

Tests used:
MV4;11 cells = assay: Cell viability assay (CellTiter-Glo) in MV4;11 cells, alone or with gilteritinib; format: cell-based; details: read-out: MV4
MOLM-13 cells = assay: Cell viability assay (CellTiter-Glo) in MOLM-13 cells, alone or with gilteritinib; format: cell-based
[1] = Homo sapiens, MV4-11, 72 h, MV4;11 cells, compound alone (without gilteritinib), three days, CellTiter-Glo, 11 IC50
[2] = Homo sapiens, MV4-11, 72 h, MV4;11 cells, with gilteritinib 10 nM, three days, CellTiter-Glo, 11 IC50 gilteritinib
[3] = Homo sapiens, MOLM-13, 72 h, MOLM-13 cells, compound alone (without gilteritinib), three days, CellTiter-Glo, read-out: MOLM-13 IC50
[4] = Homo sapiens, MOLM-13, 72 h, MOLM-13 cells, with gilteritinib 20 nM, three days, CellTiter-Glo, read-out: MOLM-13 IC50 gilteritinib
[5] = Homo sapiens, MV4-11, 72 h, MV4;11 cells, compound with gilteritinib 10 nM, three days, CellTiter-Glo, 11 IC50 gilteritinib
[6] = Homo sapiens, MOLM-13, 72 h, MOLM-13 cells, compound with gilteritinib 20 nM, three days, CellTiter-Glo, read-out: MOLM-13 IC50 gilteritinib

Compound | IC50 (MV4;11 cells; [1]) [nM] | IC50 (MV4;11 cells; [2]) [nM] | IC50 (MOLM-13 cells; [3]) [nM] | IC50 (MOLM-13 cells; [4]) [nM] | other results
O=C1CCC(N2C(=O)c3ccc(NCCC[C@H]4C[C@H](n5cc(-c6cnc7cc(N8CCOCC8)ccc7n6)cn5)C4)cc3C2=O)C(=O)N1 (stereo partly drawn) [GS-396, 2-(2,6-Dioxopiperidin-3-yl)-5-((3-(trans-3-(4-(6-morpholinoquinoxalin-2-yl)-1H-pyrazol-1-yl)cyclobutyl)propyl)amino)isoindoline-1,3-dione] | 10 to 100 | < 10 | 10 to 100 | < 10 | –
O=C1CCC(N2C(=O)c3ccc(NC[C@H]4C[C@H](n5cc(N6CCCCC6)c(C6CC6)n5)C4)cc3C2=O)C(=O)N1 (stereo partly drawn) [GS-448, 5-(((trans-3-(3-cyclopropyl-4-(piperidin-1-yl)-1H-pyrazol-1-yl)cyclobutyl)methyl)amino)-2-(2,6-dioxopiperidin-3-yl)isoindoline-1,3-dione] | 100 to 1000 | – | > 1000 | – | IC50 (MV4;11 cells; [5]): 10 to 100 nM; IC50 (MOLM-13 cells; [6]): 100 to 1000 nM
O=C1CCC(N2C(=O)c3ccc(NCCCN4CCCC(N5CCN(c6ccccn6)CC5)C4)cc3C2=O)C(=O)N1 (stereo not shown) [GS-350, 2-(2,6-Dioxopiperidin-3-yl)-5-((3-(3-(4-(pyridin-2-yl)piperazin-1-yl)piperidin-1-yl)propyl)amino)isoindoline-1,3-dione] | > 1000 | > 1000 | > 1000 | < 10 | –
O=C1CCC(N2C(=O)c3ccc(NCCC[C@H]4C[C@H](n5cc(-c6cnc7ccccc7n6)c(C(F)(F)F)n5)C4)cc3C2=O)C(=O)N1 (stereo partly drawn) [GS-400, 2-(2,6-Dioxopiperidin-3-yl)-5-((3-(trans-3-(4-(quinoxalin-2-yl)-3-(trifluoromethyl)-1H-pyrazol-1-yl)cyclobutyl)propyl)amino)isoindoline-1,3-dione] | 10 to 100 | 10 to 100 | 100 to 1000 | 10 to 100 | –
CN1CCN(c2cccc(-c3cnn([C@H]4C[C@H](CCCNc5ccc6c(c5)C(=O)N(C5CCC(=O)NC5=O)C6=O)C4)c3)n2)CC1 (stereo partly drawn) [GS-413, 2-(2,6-dioxopiperidin-3-yl)-5-((3-(trans-3-(4-(6-(4-methylpiperazin-1-yl)pyridin-2-yl)-1H-pyrazol-1-yl)cyclobutyl)propyl)amino)isoindoline-1,3-dione] | – | – | – | – | IC50 (MV4;11 cells; [5]): 100 to 1000 nM; IC50 (MV4;11 cells; MV4;11 cells, compound alone (without gilteritinib), three days, CellTiter-Glo, 11 IC50): 100 to 1000 nM; IC50 (MOLM-13 cells; [6]): 10 to 100 nM; IC50 (MOLM-13 cells; MOLM-13 cells, compound alone (without gilteritinib), three days, CellTiter-Glo, read-out: MOLM-13 IC50): > 1000 nM
O=C1CCC(N2C(=O)c3ccc(NCCCCCC(=O)N4CCC(c5ncccn5)CC4)cc3C2=O)C(=O)N1 (stereo not shown) [GS-014, 2-(2,6-Dioxopiperidin-3-yl)-5-((6-oxo-6-(4-(pyrimidin-2-yl)piperidin-1-yl)hexyl)amino)isoindoline-1,3-dione] | – | – | – | – | IC50 (MV4;11 cells; Homo sapiens, MV4-11, 72 h, MV4;11 cells, with 10 nM gilteritinib, 3 days, CellTiter-Glo, 11 IC50 gilteritinib): 8.3 nM; IC50 (MV4;11 cells; Homo sapiens, MV4-11, 72 h, MV4;11 cells, without gilteritinib, 3 days, CellTiter-Glo, 11 IC50): 71 nM; IC50 (MOLM-13 cells; Homo sapiens, MOLM-13, 72 h, MOLM-13 cells, with 20 nM gilteritinib, 3 days, CellTiter-Glo, read-out: MOLM-13 IC50 gilteritinib): 10 nM; IC50 (MOLM-13 cells; Homo sapiens, MOLM-13, 72 h, MOLM-13 cells, without gilteritinib, 3 days, CellTiter-Glo, read-out: MOLM-13 IC50): 107 nM
O=C1CCC(N2C(=O)c3ccc(NCCC45CC(C(=O)N6CCC(n7cc(-c8cnc9ccccc9n8)cn7)CC6)(C4)C5)cc3C2=O)C(=O)N1 (stereo not shown) [GS-194, 2-(2,6-Dioxopiperidin-3-yl)-5-((2-(3-(4-(4-(quinoxalin-2-yl)-1H-pyrazol-1-yl)piperidine-1-carbonyl)bicyclo[1.1.1]pentan-1-yl)ethyl)amino)isoindoline-1,3-dione] | 10 to 100 | < 10 | 100 to 1000 | < 10 | –
O=C1CCC(N2C(=O)c3ccc(NC[C@H]4C[C@H](n5cc(-c6ccc(N7CCNCC7)cn6)c(C6CC6)n5)C4)cc3C2=O)C(=O)N1 (stereo partly drawn) [GS-297, 5-(((trans-3-(3-Cyclopropyl-4-(5-(piperazin-1-yl)pyridin-2-yl)-1H-pyrazol-1-yl)cyclobutyl)methyl)amino)-2-(2,6-dioxopiperidin-3-yl)isoindoline-1,3-dione] | > 1000 | > 1000 | > 1000 | > 1000 | –
O=C1CCC(N2C(=O)c3ccc(NC[C@H]4C[C@H](n5cc(-c6cc(F)ccn6)c(C6CC6)n5)C4)cc3C2=O)C(=O)N1 (stereo partly drawn) [GS-290, 5-(((trans-3-(3-Cyclopropyl-4-(4-fluoropyridin-2-yl)-1H-pyrazol-1-yl)cyclobutyl)methyl)amino)-2-(2,6-dioxopiperidin-3-yl)isoindoline-1,3-dione] | > 1000 | 10 to 100 | > 1000 | 100 to 1000 | –
O=C1CCC(N2C(=O)c3ccc(NCCCCCC(=O)N4CCC(c5ccccc5)CC4)cc3C2=O)C(=O)N1 (stereo not shown) [GS-010, 2-(2,6-Dioxopiperidin-3-yl)-5-((6-oxo-6-(4-phenylpiperidin-1-yl)hexyl)amino)isoindoline-1,3-dione] | – | – | – | – | IC50 (MV4;11 cells; Homo sapiens, MV4-11, 72 h, 11 IC50): 17 nM; IC50 (MV4;11 cells; Homo sapiens, MV4-11, 72 h, 11 IC50 gilteritinib): 2.3 nM; IC50 (MOLM-13 cells; Homo sapiens, MOLM-13, 72 h, read-out: MOLM-13 IC50): 3 nM; IC50 (MOLM-13 cells; Homo sapiens, MOLM-13, 72 h, read-out: MOLM-13 IC50 gilteritinib): 0.3 nM
COc1ccc(-c2cn([C@H]3C[C@H](CNc4ccc5c(c4)C(=O)N(C4CCC(=O)NC4=O)C5=O)C3)nc2C2CC2)nc1 (stereo partly drawn) [GS-275, 5-(((trans-3-(3-Cyclopropyl-4-(5-methoxypyridin-2-yl)-1H-pyrazol-1-yl)cyclobutyl)methyl)amino)-2-(2,6-dioxopiperidin-3-yl)isoindoline-1,3-dione] | 10 to 100 | 10 to 100 | 100 to 1000 | 10 to 100 | –

The next lines start with results.

IC50 (MV4;11 cells; [1]) [nM] | IC50 (MV4;11 cells; [2]) [nM] | IC50 (MOLM-13 cells; [3]) [nM] | IC50 (MOLM-13 cells; [4]) [nM] | Compound | other results
100 to 1000 | 10 to 100 | 100 to 1000 | 10 to 100 | O=C1CCC(N2C(=O)c3ccc(NCCc4cccc(N5CCC(n6cc(-c7cnc8ccccc8n7)cn6)CC5)c4)cc3C2=O)C(=O)N1 (stereo not shown) [GS-152, 2-(2,6-Dioxopiperidin-3-yl)-5-((3-(4-(4-(quinoxalin-2-yl)-1H-pyrazol-1-yl)piperidin-1-yl)phenethyl)amino)isoindoline-1,3-dione] | –
> 1000 | > 1000 | > 1000 | > 1000 | O=C1CCC(N2Cc3c(NC4CCCN(Cc5cccc(N6CCC(n7cc(-c8cnc9ccccc9n8)cn7)CC6)c5)C4)cccc3C2=O)C(=O)N1 (stereo not shown) [GS-133, 3-(1-Oxo-4-((1-(3-(4-(4-(quinoxalin-2-yl)-1H-pyrazol-1-yl)piperidin-1-yl)benzyl)piperidin-3-yl)amino)isoindolin-2-yl)piperidine-2,6-dione] | –
> 1000 | > 1000 | > 1000 | > 1000 | O=C1CCC(N2Cc3c(Nc4ccnc(Nc5cccc(CN6CCC(n7cc(-c8cnc9ccccc9n8)cn7)CC6)c5)n4)cccc3C2=O)C(=O)N1 (stereo not shown) [GS-029, 3-(1-Oxo-4-((2-((3-((4-(4-(quinoxalin-2-yl)-1H-pyrazol-1-yl)piperidin-1-yl)methyl)phenyl)amino)pyrimidin-4-yl)amino)isoindolin-2-yl)piperidine-2,6-dione] | –
< 10 | < 10 | < 10 | < 10 | O=C1CCC(N2C(=O)c3ccc(NCCCNC(=O)N4CCC(n5cc(-c6cnc7ccccc7n6)cn5)CC4)cc3C2=O)C(=O)N1 (stereo not shown) [GS-132, N-(3-((2-(2,6-dioxopiperidin-3-yl)-1,3-dioxoisoindolin-5-yl)amino)propyl)-4-(4-(quinoxalin-2-yl)-1H-pyrazol-1-yl)piperidine-1-carboxamide] | –
> 1000 | > 1000 | > 1000 | > 1000 | O=C1CCC(N2Cc3ccc(NCCCC4CC(n5cc(-c6cnc7ccccc7n6)cn5)C4)cc3C2=O)C(=O)N1 (stereo not shown) [GS-131, 3-(1-Oxo-6-((3-(3-(4-(quinoxalin-2-yl)-1H-pyrazol-1-yl)cyclobutyl)propyl)amino)isoindolin-2-yl)piperidine-2,6-dione] | –
